Data reported in patent US5476847A, “Derivatives of phosphinic acid useful as endothelin converting enzyme inhibitors” (priority 1994, dated 1995).
Read-outs that look alike come from different tables or passages of the source.

Target: T1, ECE (Cavia porcellus, UniProt P97739)
T1 construct: tissue Keystone Biologicals, Cleveland, Ohio; host or cells: frozen guinea pig lungs; lubrol PX-treated lung membranes
T1 sequence (P97739 1-754): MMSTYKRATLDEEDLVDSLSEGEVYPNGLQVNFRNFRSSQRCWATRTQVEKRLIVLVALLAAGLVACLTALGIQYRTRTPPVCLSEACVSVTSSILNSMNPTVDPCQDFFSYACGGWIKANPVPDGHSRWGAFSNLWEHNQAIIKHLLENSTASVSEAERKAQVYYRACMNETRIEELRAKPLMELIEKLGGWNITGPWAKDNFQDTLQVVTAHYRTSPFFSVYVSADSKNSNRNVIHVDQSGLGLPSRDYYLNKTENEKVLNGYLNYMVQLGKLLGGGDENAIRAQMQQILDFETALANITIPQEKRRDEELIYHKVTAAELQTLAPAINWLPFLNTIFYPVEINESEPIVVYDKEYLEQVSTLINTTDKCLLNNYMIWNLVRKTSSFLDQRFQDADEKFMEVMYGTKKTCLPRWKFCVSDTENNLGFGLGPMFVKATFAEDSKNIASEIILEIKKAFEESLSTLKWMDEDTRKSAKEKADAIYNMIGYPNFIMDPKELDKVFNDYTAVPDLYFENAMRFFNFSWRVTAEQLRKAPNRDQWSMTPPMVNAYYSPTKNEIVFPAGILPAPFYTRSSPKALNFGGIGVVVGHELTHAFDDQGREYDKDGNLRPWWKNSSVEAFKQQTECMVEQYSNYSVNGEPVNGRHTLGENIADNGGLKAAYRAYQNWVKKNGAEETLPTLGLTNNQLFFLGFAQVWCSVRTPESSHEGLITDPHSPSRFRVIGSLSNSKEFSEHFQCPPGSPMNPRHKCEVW
Experiment: In vitro ECE assay (inhibition of [125I]BET-1 to [125I]ET-1 conversion, lubrol-treated guinea pig lung membrane)
Format: biochemical
Conditions: L-GPLGM
Description: The ECE assay is based on the quantitative determination of [^125 l]ET-1 released from [^125 l]BET-1 labeled on Tyrosine-13 by binding to the membrane-bound ET receptor. […] GPLGM was also found to contain a high density of ET receptors. Thus, this preparation was utilized as a source of both ECE and a saturating concentration of ET receptors for the quantitative determination of [251l]ET-1 from the conversion of [125l ]BET-1. Under selected experimental conditions of the ECE assay, specific [125l]ET-1 bound was directly related to ECE activity. Assays were carried out in the presence of varying concentrations of test compounds to evaluate their efficacy in inhibiting ECE activity.
Frozen guinea pig lungs (Keystone Biologicals,Cleveland, Ohio) are weighed and homogenized in 10 times gram tissue weight of solution A (50 mM Tris-HCl, pH 7.4, 0.25M sucrose, and 2 mM EDTA) using a Polytron tissue homogenizer (probe PTA-20S). Homogenization is repeated four times at speed setting seven each for 10 s and with 5-8 min intervals on ice in between homogenization. Homogenates are spun for 30 min at 2000 g (4100 rpm in an SS34 rotor or 3800 rpm in an SA-600 rotor). Supernatants containing membranes are carefully decanted and saved. Pellets are rehomogenized in solution A as described, and homogenates are spun at 2000 g for 30 min. Supernatants are removed, mixed with the supernatants from the first spin, and spun at 37000 rpm in a 45 Ti rotor (107022 g) for 60 min. Pellets containing membranes are suspended in solution B (10 mM Tris-HCl, pH 7.4, and 0.125M sucrose) using a Dounce homogenizer. Samples are divided into 1 ml fractions, rapidly frozen in a dry ice methanol bath, and stored at -80° C. All steps are carried out at 4° C.
GPLGM fractions prepared as described above are thawed and resuspended at a concentration of 1 mg membrane protein/mL in a solution containing 0.06% lubrol PX, 50 mM Tris-HCl (pH 7.4), and 100 mM NaCl. Stir the mixture for 1 h and then spin for 1 h at 37000 rpm in a 45 Ti rotor (107022 g). Discard the supernatants and resuspend the pellets in a solution containing 50 mM Tris-HCl (pH 7.4), and 100 mM NaCl using a Dounce homogenizer, and adjust the final volume to half the original volume. Spin the homogenates for 1 h at 37000 rpm in a 45 Ti rotor (107022 g). Suspend the membrane pellets in solution B and treat as described above. All steps are performed at 4° C.
ECE Assay: Samples of L-GPLGM containing 20 μg protein are incubated in a solution containing 100 mM Tris-HCl (pH 7), 100 mM NaCl, and 5 mg/ml BSA (Fraction V, 98-99% albumin) (Sigma Chemical Co.) at a final reaction volume of 100 μL. The ECE assay is initiated by the addition of [^125 l]BET-1 to obtain a final concentration of 500 pM. Reactions are carried out for 30 min at 37° C. Reactions are terminated by addition of 4 mL of solution C (10 mM Tris-HCl, pH 7.4, and 150 mM NaCl) at 4° C. followed by rapid filtration on Whatman GF/B glass microfiber filters. Filters are presoaked for 1 h at 4° C. in a solution containing 50 mM Tris-HCl (pH 7.4), 10 mg/mL BSA, and 0.1% sodium azide. Wash test tubes and filters four times with 4 mL of solution C at 4° C., and count radioactivity retained on the filters in a γ counter. Non-specific binding is determined in the presence of 1 μM of unlabeled ET-1 (Peninsula Laboratories, Inc., Belmont, Calif.) in the reaction mixture. All reactions are performed in duplicate.
To test the effect of test compounds on ECE activity, ECE assays are carried out in the presence of varying concentrations of the compounds. Assays are initiated following a 2 h incubation of L-GPLGM with the compound at 4° C. ECE activity in the presence of compounds is expressed as a percentage of control ECE activity of the membrane preparation, which is determined simultaneously.

[1] = table of additional compounds, read-out: IC50 (in vitro ECE inhibition activity)
[2] = 2 h preincubation at 4° C., 500 pM [125I]BET-1, table of examples, read-out: ECE IC50

Row | IC50 [1] [nM] | IC50 [2] [nM] | Structure (SMILES)
1 | 230 |  | CC(C)CC(CP(=O)(O)C(Cc1ccc2ccccc2c1)NC(=O)C(CCCCNC(=O)OCc1ccccc1)NC(=O)C(CC(C)C)NS(C)(=O)=O)C(=O)N[C@@H](Cc1c[nH]c2ccccc12)C(=O)O (stereo partly drawn)
2 | 800 |  | CC(C)C(CP(=O)(O)C(Cc1ccc2ccccc2c1)NC(=O)C(CCCCNC(=O)OCc1ccccc1)NS(C)(=O)=O)C(=O)N[C@@H](Cc1c[nH]c2ccccc12)C(=O)O (stereo partly drawn)
3 | 500 |  | CC(C)CC(CP(=O)(O)C(Cc1ccccc1)NC(=O)C(CCCCNC(=O)OCc1ccccc1)NS(C)(=O)=O)C(=O)N[C@@H](Cc1c[nH]c2ccccc12)C(=O)O (stereo partly drawn)
4 | 1400 |  | CC(C)CC(CP(=O)(O)C(CC(C)C)NC(=O)C(CCCCNC(=O)OCc1ccccc1)NS(C)(=O)=O)C(=O)N[C@@H](Cc1c[nH]c2ccccc12)C(=O)O (stereo partly drawn)
5 | 550 |  | CC(C)C(CP(=O)(O)C(Cc1ccccc1)NC(=O)C(CCCN)NS(C)(=O)=O)C(=O)N[C@@H](Cc1c[nH]c2ccccc12)C(=O)O (stereo partly drawn)
6 | 500 |  | CC(C)C(CP(=O)(O)C(Cc1ccccc1)NC(=O)C(CCCCN)NS(C)(=O)=O)C(=O)N[C@@H](Cc1c[nH]c2ccccc12)C(=O)O (stereo partly drawn)
7 | 390 |  | CC(C)C(CP(=O)(O)C(Cc1ccccc1)NC(=O)C(CCCCNC(=O)OCc1ccccc1)NS(C)(=O)=O)C(=O)N[C@@H](Cc1c[nH]c2ccccc12)C(=O)O (single isomer, unassigned) [listing 1 of 2 here]
8 | 27 |  | CC(C)CC(CP(=O)(O)C(Cc1ccc2ccccc2c1)NC(=O)C(CCCCN)NS(C)(=O)=O)C(=O)N[C@@H](Cc1c[nH]c2ccccc12)C(=O)O (single isomer, unassigned) [listing 1 of 3 here]
9 | 1500 |  | CC(C)C(CP(=O)(O)C(Cc1ccccc1)NC(=O)C(CCCCNC(=O)OCc1ccccc1)NS(C)(=O)=O)C(=O)N[C@@H](Cc1c[nH]c2ccccc12)C(=O)O (single isomer, unassigned) [listing 2 of 2 here]
10 | 60 |  | CC(C)CC(CP(=O)(O)C(Cc1ccc2ccccc2c1)NC(=O)C(CCCCN)NS(C)(=O)=O)C(=O)N[C@@H](Cc1c[nH]c2ccccc12)C(=O)O (single isomer, unassigned) [listing 2 of 3 here]
11 | 68 |  | CC(C)CC(CP(=O)(O)C(Cc1ccc2ccccc2c1)NC(=O)C(CCCCN)NS(C)(=O)=O)C(=O)N[C@@H](Cc1c[nH]c2ccccc12)C(=O)O (single isomer, unassigned) [listing 3 of 3 here]
12 |  | 65 | CC(C)CC(CP(=O)(O)C(Cc1ccc2ccccc2c1)NC(=O)[C@H](CCCCNC(=O)OCc1ccccc1)NS(C)(=O)=O)C(=O)N[C@@H](Cc1c[nH]c2ccccc12)C(=O)O (single isomer, unassigned) [Example 9A]
13 |  | 4500 | CC(C)CC(CP(=O)(O)C(Cc1ccc2ccccc2c1)NC(=O)[C@H](CCCCNC(=O)OCc1ccccc1)NS(C)(=O)=O)C(=O)N[C@@H](Cc1c[nH]c2ccccc12)C(=O)O (single isomer, unassigned) [Example 9B]
14 |  | 4500 | CC(C)CC(CP(=O)(O)C(Cc1ccc2ccccc2c1)NC(=O)[C@H](CCCCNC(=O)OCc1ccccc1)NS(C)(=O)=O)C(=O)N[C@@H](Cc1c[nH]c2ccccc12)C(=O)O (single isomer, unassigned) [Example 9C]
15 |  | 40 | CC(C)CC(CP(=O)(O)C(CC(C)C)NC(=O)[C@H](CCCCNC(=O)OCc1ccccc1)NS(C)(=O)=O)C(=O)N[C@@H](Cc1c[nH]c2ccccc12)C(=O)O (single isomer, unassigned) [Example 10A]
16 | 300 |  | CC(C)CC(CP(=O)(O)C(Cc1ccc2ccccc2c1)NC(=O)OCc1ccccc1)C(=O)N[C@@H](Cc1c[nH]c2ccccc12)C(=O)O (stereo partly drawn) [Cbz, 2-naphthylmethyl, H, iso-butyl]
17 | 200 |  | CC(C)CC(CP(=O)(O)C(CCCCO)NC(=O)OCc1ccccc1)C(=O)N[C@@H](Cc1c[nH]c2ccccc12)C(=O)O (stereo partly drawn) [Cbz, HO(CH2)4, H, iso-butyl]
18 | 400 |  | CC(C)CC(CP(=O)(O)C(CCCCN)NC(=O)OCc1ccccc1)C(=O)N[C@@H](Cc1c[nH]c2ccccc12)C(=O)O (stereo partly drawn) [Cbz, NH 2(CH2)4, H, iso-butyl]

Second part, the compound before the results:

Row | Structure (SMILES) | IC50 [1] [nM] | IC50 [2] [nM]
19 | CCC(C)C(NC(=O)OCc1ccccc1)C(=O)NC(Cc1ccccc1)P(=O)(O)CC(C(=O)N[C@@H](Cc1c[nH]c2ccccc12)C(=O)O)C(C)C (stereo partly drawn) | 400 | 
20 | CC(C)C(CP(=O)(O)C(Cc1ccccc1)NC(=O)C(CCCCNC(=O)OCc1ccccc1)NC(=O)OCc1ccccc1)C(=O)N[C@@H](Cc1c[nH]c2ccccc12)C(=O)O (stereo partly drawn) | 1100 | 
21 | CCC(C)C(N)C(=O)NC(Cc1ccccc1)P(=O)(O)CC(C(=O)N[C@@H](Cc1c[nH]c2ccccc12)C(=O)O)C(C)C (stereo partly drawn) | 1600 | 
22 | CC(C)CC(CP(=O)(O)C(Cc1ccccc1)NC(=O)C(CC(C)C)NC(=O)OCc1ccccc1)C(=O)N[C@@H](Cc1c[nH]c2ccccc12)C(=O)O (stereo partly drawn) | 160 | 
23 | CC(C)CC(NC(=O)C(CCCCNC(=O)OCc1ccccc1)NS(C)(=O)=O)P(=O)(O)CC1(C(=O)N[C@@H](Cc2c[nH]c3ccccc23)C(=O)O)CCCC1 (stereo partly drawn) | 260 | 
24 | O=C(NC(Cc1ccc2ccccc2c1)P(=O)(O)CC1(C(=O)N[C@@H](Cc2c[nH]c3ccccc23)C(=O)O)CCCC1)OCc1ccccc1 (stereo partly drawn) [Cbz, 2-naphthylmethyl, R3 + R4 = (CH2)4] | 500 | 
25 | CC(C)C(CP(=O)(O)C(Cc1ccccc1)NC(=O)OCc1ccccc1)C(=O)N[C@@H](Cc1c[nH]c2ccccc12)C(=O)O (stereo partly drawn) [Cbz, C6 H5CH2, H, iso-propyl] | 1300 | 
26 | O=C(NC(Cc1ccccc1)P(=O)(O)CC1(C(=O)N[C@@H](Cc2c[nH]c3ccccc23)C(=O)O)CCCC1)OCc1ccccc1 (stereo partly drawn) [Cbz, C6 H5CH2, R3 + R4 = (CH2)4] | 190 | 
27 | CC(C)CC(CP(=O)(O)C(CC1CCCC1)NC(=O)OCc1ccccc1)C(=O)N[C@@H](Cc1c[nH]c2ccccc12)C(=O)O (stereo partly drawn) [Cbz, cyclopentylmethyl, H, iso-butyl] | 1000 | 
28 | COc1ccc(CC(NC(=O)OCc2ccccc2)P(=O)(O)CC2(C(=O)N[C@@H](Cc3c[nH]c4ccccc34)C(=O)O)CCCC2)cc1 (stereo partly drawn) [Example 1A] |  | 115
29 | O=C(NC(Cc1ccc(OCc2ccccc2)cc1)P(=O)(O)CC1(C(=O)N[C@@H](Cc2c[nH]c3ccccc23)C(=O)O)CCCC1)OCc1ccccc1 (stereo partly drawn) [Example 1B] |  | 400
30 | O=C(NC(Cc1ccccc1)P(=O)(O)CC1(C(=O)N[C@@H](Cc2c[nH]c3ccccc23)C(=O)O)CCCCCC1)OCc1ccccc1 (stereo partly drawn) [Example 1C] |  | 800
